# From ChEMBL document CHEMBL6134859, “Unlocking the antiviral arsenal: Structure-guided optimization of small-molecule inhibitors against RSV and hCoV-229E” (Eur J Med Chem, 2025)
# Test: Kinetic solubility of the compound in 1%DMSO/PBS measured after 5 mins
# Type: physicochemical
# Conditions: read-out: Kinetic_solubility
row,Compound,solubility kinetic at 5 min [µM]
1,Clc1cc(Cl)c2ncnc(OCc3ccccc3-c3cccnc3)c2c1,60
2,COc1ccc(C(C)=O)cc1COc1ncnc2c(O)cccc12,55
3,Clc1cc(Cl)c2ncnc(OCc3ccccc3-c3ccccc3)c2c1,16
4,COc1ccc(C(C)=O)cc1COc1ncnc2c(C(F)(F)F)cccc12,33
5,COc1cccc(OC)c1COc1ncnc2c(Cl)cc(Cl)cc12,21
6,CCc1ccc(OC)c(COc2ncnc3c(Cl)cc(Cl)cc23)c1,34
7,COc1ccc(COc2ncnc3c(Cl)cc(Cl)cc23)cc1C(C)=O,39
8,COc1ccc(C(C)=O)cc1COc1ncnc2c(Cl)cc(C)cc12,66
9,COc1ccc(C(C)=O)cc1COc1ncnc2ccc(Cl)cc12,60
10,COC(=O)c1ccc(COc2ncnc3c(Cl)cc(Cl)cc23)cc1,25
11,COc1ccc(C(C)=O)cc1COc1ncnc2c(C)cccc12,57
12,COc1ccc(C(C)=O)cc1C(=O)Nc1ncnc2c(Cl)cc(Cl)cc12,> 100
13,FC(F)(F)c1ccc(COc2ncnc3c(Cl)cc(Cl)cc23)cc1,18
14,COc1ccc(C(C)=O)cc1COc1ncnc2c(Br)cccc12,41
15,COc1ccc(COc2ncnc3c(Cl)cc(Cl)cc23)cc1,44
16,O=C(O)c1ccccc1COc1ncnc2c(Cl)cc(Cl)cc12,> 100
17,Fc1ccc(COc2ncnc3c(Cl)cc(Cl)cc23)cc1,22
18,COc1ccc(C(C)=O)cc1COc1ncnc2c(C)cc(C)cc12,> 100
19,COc1ccc(C(C)=O)cc1COc1ncnc2c(OCc3cc(C(C)=O)ccc3OC)cccc12,53
20,COc1cccc(COc2ncnc3c(Cl)cc(Cl)cc23)c1,22
21,COc1ccc(C(C)=O)cc1COc1ncnc2c(C#N)cccc12,> 100

row,Compound,solubility kinetic at 5 min [µM]
1,COc1ccc(C(C)=O)cc1COc1ncnc2c(C3CC3)cccc12,27
2,COc1cccc(C(C)=O)c1COc1ncnc2c(Cl)cc(Cl)cc12,44
3,COc1cc(C(C)=O)ccc1COc1ncnc2c(Cl)cc(Cl)cc12,26
4,COc1ccccc1CSc1ncnc2c(Cl)cc(Cl)cc12,24
5,COc1ccc(C(C)=O)cc1COc1ncnc2cc(Cl)cc(Cl)c12,41
6,COc1ccc(C(C)=O)cc1COc1ncnc2c(-c3ccccc3)cccc12,35
7,COc1ccc(C(C)=O)cc1CNc1ncnc2c(Cl)cc(Cl)cc12,> 100
8,COCCOc1ccccc1COc1ncnc2c(Cl)cc(Cl)cc12,42
9,Cc1ccc(COc2ncnc3c(Cl)cc(Cl)cc23)cc1,12
10,COc1ccc(C(C)=O)cc1COc1ncnc2cccc(Cl)c12,54
11,CC(=O)c1ccccc1COc1ncnc2c(Cl)cc(Cl)cc12,43
12,COc1ccc(C(C)=O)cc1COc1ncnc2c(OC)cccc12,> 100
13,COC(=O)c1cccc2c(OCc3cc(C(C)=O)ccc3OC)ncnc12,> 100
14,CCc1ccc(C(C)=O)cc1COc1ncnc2c(Cl)cc(Cl)cc12,21
15,Clc1cc(Cl)c2ncnc(OCc3cccc4c3OCO4)c2c1,21
16,Clc1ccc(COc2ncnc3c(Cl)cc(Cl)cc23)cc1,18
17,O=C(O)c1cccc(COc2ncnc3c(Cl)cc(Cl)cc23)c1,> 100
18,CCc1ccccc1COc1ncnc2c(Cl)cc(Cl)cc12,28
19,CC(=O)c1ccc(-c2cccnc2)c(COc2ncnc3c(Cl)cc(Cl)cc23)c1,> 100
20,CC(=O)c1cccc(COc2ncnc3c(Cl)cc(Cl)cc23)c1,46
21,O=C(O)c1ccc(COc2ncnc3c(Cl)cc(Cl)cc23)cc1,> 100

row,Compound,solubility kinetic at 5 min [µM]
1,COc1ccc(C(C)=O)cc1COc1ncnc2c(-c3ccncc3)cccc12,32
2,COc1ccccc1COc1ncnc2c(Cl)cc(Cl)cc12,32
3,COc1ccc(C(C)=O)cc1COc1ncnc2cc(Cl)ccc12,26
4,COc1c(COc2ncnc3c(Cl)cc(Cl)cc23)cccc1C(C)=O,57
5,COc1cc(COc2ncnc3c(Cl)cc(Cl)cc23)cc(C(C)=O)c1,21
6,COc1ccc(C(C)=O)cc1CSc1ncnc2c(Cl)cc(Cl)cc12,17
7,COc1ccc(C(C)=O)cc1COc1ncnc2c(Cl)ccc(Cl)c12,37
8,N#Cc1ccc(COc2ncnc3c(Cl)cc(Cl)cc23)cc1,25
9,COc1ccc(C(C)=O)cc1COc1ncnc2c(N3CCOCC3)cccc12,> 100
10,COc1ccc(C(C)=O)cc1COc1ncnc2c(S(C)(=O)=O)cccc12,> 100
11,COc1ccc(C(C)=O)cc1COc1ncnc2c(Cl)cc(Cl)cc12,62
12,Fc1ccccc1COc1ncnc2c(Cl)cc(Cl)cc12,26
13,Clc1cc(Cl)c2ncnc(OCc3ccccc3Br)c2c1,20
14,COc1ccc(C(C)=O)cc1COc1ncnc2c(C)cc(Cl)cc12,50
15,COC(=O)c1ccccc1COc1ncnc2c(Cl)cc(Cl)cc12,22
16,COc1ccc(C(C)=O)cc1COc1ncnc2c(F)cccc12,> 100
17,Clc1cc(Cl)c2ncnc(OCc3ccccc3)c2c1,25
18,COc1ccc(C(C)=O)cc1COc1ncnc2c(Cl)cccc12,58
19,Clc1cc(Cl)c2ncnc(OCc3ccc(Br)cc3)c2c1,12
